The results in this text go back to article PMC6272992, “Synthesis and Cytotoxic Effect of Some Novel 1,2-Dihydropyridin-3-carbonitrile and Nicotinonitrile Derivatives” (Molecules, 2015).

Data set [1] concerns MCF-7 (breast adenocarcinoma). The data set is described as follows: SRB cancer cell growth assay, MCF-7. Particulars: for IC50: Homo sapiens, MCF7, MCF-7, 48 h exposure, SRB, read-out: IC50 (μg/mL) MCF-7. Also on record: key to activity class MCF-7: highly active; b: moderately active; weakly active. It counts as cell-based, human. The method, then:
(§1) The in vitro cytotoxic activity the newly synthesized compounds against human breast cell line (MCF7), non-small cell lung cancer NCI-H460, CNS cancer SF-268 and WI 38 (normal fibroblast cells) were evaluated using doxorubicin as the reference drug, according to the method reported by Skehan et al..
(§2) The newly synthesized compounds were evaluated in vitro against three human cancer cell lines; which are MCF-7 (breast adenocarcinoma), NCI-H460 (non-small cell lung cancer) and SF-268 (CNS cancer), and WI 38 (normal fibroblast cells) were used in this study. MCF-7 was obtained from the European Collection of Cell Cultures (ECACC, Salisbury, UK) but NCI-H460, SF-268 and WI 38 were kindly provided by the National Cancer Institute (NCI, Cairo, Egypt). They grow as monolayers routinely maintained in RPMI-1640 medium supplemented with 5% heat inactivated fetal bovine serum (FBS), 2 mM glutamine and antibiotics (penicillin 100 U/mL, streptomycin 100 µg/mL), at 37 °C in a humidified atmosphere containing 5% CO2. Exponentially growing cells were obtained by plating 1.5 × 10^5 cells/mL for MCF-7 and SF-268, and 0.75 × 10^4 cells/mL for NCI-H460 followed by 24 h of incubation. The effect of the vehicle solvent (DMSO) on the growth of these cell lines was evaluated in all experiments by exposing untreated control cells to the maximum concentration (0.5%) of DMSO used in each assay.
(§3) The effect of compounds on the in vitro growth of human tumor cell lines were evaluated according to the procedure adopted by the National Cancer Institute (NCI, […], USA) in the “In vitro Anticancer Drug Discovery Screen” that uses the protein-binding dye sulforhodamine B (SRB) to assess cell growth. In the assay protocol, all cells were incubated at 37 °C under humidified atmosphere containing 5% CO2. Briefly, exponentially cells growing in 96-well plates were then exposed for 48 h to five serial concentrations of each compound, starting from a maximum concentration of 150 μg/mL. Following this exposure period, adherent cells were fixed, washed and stained. The bound stain was solubilized and the absorbance was measured at 492 nm in a Power Wave XS plate reader (Bio-Tek Instruments Inc., Winston, NC, USA). For each test compound and cell line, a dose response curve was obtained and the inhibitory concentration of 50% (IC50), corresponding to the concentration of the compounds that inhibited 50% of the net cell growth was calculated as described elsewhere. Doxorubicin was used as a positive control and tested in the same manner.

The subject of data set [2] is WI 38 (normal fibroblast cells). The data set is described as follows: SRB cell growth assay, normal cells WI 38. Particulars: 48 h exposure, non-cytotoxic = IC50 > 100 μg/mL; for IC50: Homo sapiens. It counts as cell-based, human. As for the experimental part:
as §1, §2, §3

For data set [3], the system named is NCI-H460 (non-small cell lung cancer). The data set is described as follows: SRB cancer cell growth assay, NCI-H460. Also on record: key to activity class NCI-H460: highly active; b: moderately active; weakly active. The conditions noted are these: for IC50: Homo sapiens, NCI-H460, 48 h exposure, SRB, read-out: IC50 (μg/mL) NCI-H460. It counts as cell-based, human. As for the experimental part: as §1, §2, §3

The test system of a further data set is SF-268 (CNS cancer). The data set is described as follows: SRB cancer cell growth assay, SF-268. It counts as cell-based, human. Also on record: key to activity class SF-268: highly active; b: moderately active; weakly active. The conditions noted are these: for IC50: Homo sapiens, SF-268, 48 h exposure, SRB, read-out: IC50 (μg/mL) SF-268. The method, then: as §1, §2, §3

Each structure is given as a SMILES string. Converted amounts (≈) assume the structure as drawn.

A word on the melting point: it is the temperature of the solid-liquid transition. With `CC1=NN(c2nc(-c3ccc(Cl)cc3Cl)cc(-c3ccc(F)cc3)c2C#N)C(=O)C1` [Compound 18, 6-(2,4-Dichlorophenyl)-4-(4-fluorophenyl)-2-(3-methyl-5-oxo-4,5-dihydro-1H-pyrazol-1-yl) nicotinonitrile], the melting point lay within 246 to 248 °C. In addition, in data set [1], the IC50 was 20.2 ± 2.26 µg/mL (≈ 46 µM) and the “activity class MCF-7” value is on record as “b”. The compound further gave an IC50 in data set [2] of 29.8 ± 4.88 µg/mL (≈ 67.9 µM). Moreover, in data set [3], the IC50 was 0.01 ± 0.003 µg/mL (≈ 0.0228 µM) and the “activity class NCI-H460” value is given as “a”. Besides, in the data set on SF-268 (CNS cancer), the IC50 worked out at 20.2 ± 3.26 µg/mL (≈ 46 µM) and the “activity class SF-268” value is listed as “b”.

`Cc1cc(C)n(-c2nc(-c3ccc(Cl)cc3Cl)cc(-c3ccc(F)cc3)c2C#N)n1` [Compound 19, 6-(2,4-Dichlorophenyl)-2-(3,5-dimethyl-1H-pyrazol-1-yl)-4-(4-fluorophenyl)nicotinonitrile] came in with a melting point of 287 to 289 °C. In addition, in data set [1], the IC50 was 75.2 ± 13.9 µg/mL (≈ 172 µM) and the “activity class MCF-7” value was “c”. In addition, in data set [2], the IC50 stood at 50.2 ± 10.2 µg/mL (≈ 115 µM). In data set [3], the IC50 is 62.3 ± 10.3 µg/mL (≈ 142 µM) and the “activity class NCI-H460” value is given as “c”. In the data set on SF-268 (CNS cancer), the IC50 worked out at 10.4 ± 4.19 µg/mL (≈ 23.8 µM) and the “activity class SF-268” value is “a”.

Consider `N#Cc1c(-c2ccc(F)cc2)cc(-c2ccc(Cl)cc2Cl)nc1NN=C1C(=O)Nc2ccccc21` [Compound 20, 6-(2,4-Dichlorophenyl)-4-(4-fluorophenyl)-2-[2-(2-oxoindolin-3-ylidene)hydrazinyl]nicotinonitrile], for which the melting point is 268 to 269 °C. Further, in data set [1], the IC50 was determined as 0.66 ± 0.21 µg/mL (≈ 1.31 µM) and the “activity class MCF-7” value is reported as “a”. Also, the IC50 in data set [2] is 72.5 ± 2.4 µg/mL (≈ 144 µM). Moreover, in data set [3], the IC50 was 0.9 ± 0.12 µg/mL (≈ 1.79 µM) and the “activity class NCI-H460” value is “a”. For the same compound, in the data set with SF-268 (CNS cancer), the IC50 came out at 2.34 ± 0.51 µg/mL (≈ 4.66 µM) and the “activity class SF-268” value is “a”.

With `COc1ccc(C=NNc2nc(-c3ccc(Cl)cc3Cl)cc(-c3ccc(F)cc3)c2C#N)cc1OC` [Compound 21d, 6-(2,4-Dichlorophenyl)-2-[2-(3,4-dimethoxybenzylidene)hydrazinyl]-4-(4-fluorophenyl) nicotinonitrile], the melting point was in the range of 278 to 280 °C. In data set [1], the IC50 stood at 66 ± 8.25 µg/mL (≈ 127 µM) and the “activity class MCF-7” value was “c”. Moreover, the “IC50 (μg/mL) WI 38” value in data set [2] is reported as “non-cytotoxic”. In addition, in data set [3], the IC50 was determined as 45 ± 10.5 µg/mL (≈ 86.2 µM) and the “activity class NCI-H460” value is reported as “c”. In addition, in the data set on SF-268 (CNS cancer), the IC50 came to 32.5 ± 6.04 µg/mL (≈ 62.2 µM) and the “activity class SF-268” value is given as “b”.
